One assay has as its target T1, JH2 domain of human Tyk2 (Homo sapiens, UniProt P29597).
T1 construct: 10×His-tagged TYK2 JH2 domain (amino acid 575-876)
Nature of the assay: JH2 biochemical assay (TR-FRET probe displacement). The format is binding. To be noted: JH2 biochemical assay. In a few lines: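 A probe-displacement TR-FRET readout: compounds, tested in 3-fold, 10-point dilutions starting at […], compete with 2 nM tracer for 2 nM His-tagged JH2 (residues 575-876) detected by 0.1 nM Tb-anti-His over 60 min. IC50 comes from 4-parameter fits of normalized 520/495 nm ratios.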

For assay [1], the system named is Tyk2 kinase activity on STAT4. Put plainly: pSTAT4 cell assay (MSD, NK92 cells). It counts as cell-based. The conditions noted are these: compounds 1 hr, stimulated 15 minutes. In a few lines: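 Cells natively expressing STAT4 and Tyk2 (NK92) are serum-starved to lower background phosphorylation, exposed to compound for 1 hr over a 10-point four-fold series starting at 10 μM, and stimulated with 30 ng/mL IL2 for 15 minutes. Phosphorylation is quantified on MSD with anti-STAT4 antibodies.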

The test system of assay [2] is JAK1 kinase activity on STAT3. Nature of the assay: pSTAT3 cell assay (MSD, TF1 cells, IL-6 stimulated). The format is cell-based. To be noted: Homo sapiens, TF-1, compounds 1 hour, 30 ng/mL IL-6 for 15 minutes. On the procedure:
The inhibitory potency of compounds of the disclosure against the JAK1 kinase activity on STAT3 was evaluated using an MSD-platform plate-based assay format. TF1 cells natively expressing STAT3 and JAK1 were serum-starved to reduce background phosphorylation levels, then cells were treated with compounds of the disclosure for 1 hour with a 10-point four-fold dilution series starting at 10 μM. Cells were then stimulated with 30 ng/mL interleukin 6 (IL-6) for 15 minutes. Cells were lysed and pSTAT3 levels were quantitated using an MSD plate-based assay with anti-STAT3 antibodies. The data were normalized and the percent activity versus log concentration of compound was fitted with a 4-parameter logistic model to generate IC50 curves.

The subject of assay [3] is JAK2 kinase activity on STAT5. Nature of the assay: pSTAT5 cell assay (MSD, TF1 cells, IL-3 stimulated). The conditions noted are these: Homo sapiens, TF-1, compounds 1 hour, 30 ng/mL IL-3 for 15 minutes. It counts as cell-based. On the procedure: Compounds of the disclosure were assessed for their ability to inhibit the JAK2 kinase activity on STAT5 utilizing an MSD-platform plate-based assay format. TF1 cells natively expressing STAT5 and JAK2 were serum-starved to reduce background phosphorylation levels, then cells were treated with compounds of disclosure for 1 hour with a 10-point four-fold dilution series starting at 10 μM. Cells were then stimulated with 30 ng/mL IL-3 for 15 minutes. Cells were then lysed and pSTAT5 levels were quantitated using an MSD plate-based assay with anti-STAT5 antibodies. The data were normalized and the percent activity versus log concentration of compound was fitted with a 4-parameter logistic model to generate a curve and an IC50 value.

pIC50: −log10 of the molar value. Counter-ions that a name gives are not always drawn.

T1 sequence (P29597 575-876): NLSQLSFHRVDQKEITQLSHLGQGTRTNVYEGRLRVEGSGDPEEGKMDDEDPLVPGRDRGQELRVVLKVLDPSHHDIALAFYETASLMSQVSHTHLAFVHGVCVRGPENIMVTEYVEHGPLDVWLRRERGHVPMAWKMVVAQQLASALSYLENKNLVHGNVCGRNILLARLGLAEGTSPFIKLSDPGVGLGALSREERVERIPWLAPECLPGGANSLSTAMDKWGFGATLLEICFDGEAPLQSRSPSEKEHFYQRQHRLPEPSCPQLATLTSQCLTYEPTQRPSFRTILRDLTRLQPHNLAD

Take `CCc1cc(N2CC3(CC3)c3cnc(NC(C)=O)cc32)nc(C(C)(F)F)n1` [Example 11, N-(1′-(2-(1,1-difluoroethyl)-6-ethylpyrimidin-4-yl)-1′,2′-dihydrospiro[cyclopropane-1,3′-pyrrolo[3,2-c]pyridin]-6′-yl)acetamide]: the pIC50 at JH2 domain of human Tyk2 was ≥ 8.00; in assay [1], 7.00 to 8.00; in assay [2], ≤ 6.00; in assay [3] it was ≤ 6.00.
As for `CC(=O)Nc1cc2c(cn1)C1(CC1)CN2c1cccc(C(C)(F)F)n1` [Example 12, N-(1′-(6-(1,1-difluoroethyl)pyridin-2-yl)-1′,2′-dihydrospiro[cyclopropane-1,3′-pyrrolo[3,2-c]pyridin]-6′-yl)acetamide], the negative logarithm of the IC50 (pIC50) at JH2 domain of human Tyk2 was ≥ 8.00; in assay [1], 7.00 to 8.00; in assay [2] it was ≤ 6.00; in assay [3], ≤ 6.00.
On to `CC(=O)Nc1cc2c(cn1)C1(CC1)CN2c1ccnc(C(C)(F)F)n1` [Example 13, N-(1′-(2-(1,1-difluoroethyl)pyrimidin-4-yl)-1′,2′-dihydrospiro[cyclopropane-1,3′-pyrrolo[3,2-c]pyridin]-6′-yl)acetamide], for which the negative-log IC50 (pIC50) on JH2 domain of human Tyk2 was 7.00 to 8.00; in assay [1], 6.00 to 7.00; in assay [2], ≤ 6.00; in assay [3], ≤ 6.00.
As for `CC(=O)Nc1cc2c(cn1)C1(CC1)CN2c1nccc(C(C)(F)F)n1` [Example 14, N-(1′-(4-(1,1-difluoroethyl)pyrimidin-2-yl)-1′,2′-dihydrospiro[cyclopropane-1,3′-pyrrolo[3,2-c]pyridin]-6′-yl)acetamide], the negative-log IC50 (pIC50) is 7.00 to 8.00 on JH2 domain of human Tyk2, 6.00 to 7.00 in assay [1], ≤ 6.00 in assay [2] and ≤ 6.00 in assay [3].
As to `CC(=O)Nc1cc2c(cn1)C1(CC1)CN2c1cccc(C2CCOC2)n1` (centres unmarked) [Example 16, N-(1′-(6-(tetrahydrofuran-3-yl)pyridin-2-yl)-1′,2′-dihydrospiro[cyclopropane-1,3′-pyrrolo[3,2-c]pyridin]-6′-yl)acetamide], the pIC50 on JH2 domain of human Tyk2 is ≥ 8.00; in assay [1] it was 7.00 to 8.00; in assay [2], ≤ 6.00; in assay [3], ≤ 6.00.
For `CC(=O)Nc1cc2c(cn1)C1(CC1)CN2c1ccnc(C(C)(C)F)n1` [Example 17, N-(1′-(2-(2-fluoropropan-2-yl)pyrimidin-4-yl)-1′,2′-dihydrospiro[cyclopropane-1,3′-pyrrolo[3,2-c]pyridin]-6′-yl)acetamide], the pIC50 at JH2 domain of human Tyk2 is ≥ 8.00; in assay [1], 6.00 to 7.00; in assay [2] it was ≤ 6.00; in assay [3], ≤ 6.00.
As to `COC1(c2cccc(N3CC4(CC4)c4cnc(NC(C)=O)cc43)n2)CCOC1` (centres unmarked) [Example 18, N-(1′-(6-(3-methoxytetrahydrofuran-3-yl)pyridin-2-y1)-1′,2′-dihydrospiro[cyclopropane-1,3′-pyrrolo[3,2-c]pyridin]-6′-yl)acetamide], the negative-log IC50 (pIC50) on JH2 domain of human Tyk2 was ≥ 8.00; in assay [1] it was 7.00 to 8.00; in assay [2] it was ≤ 6.00; in assay [3], ≤ 6.00.
As to `CC(=O)Nc1cc2c(cn1)C1(CC1)CN2c1cccc(C2(O)CCOC2)n1` (centres unmarked) [Example 19, N-(1′-(6-(3-hydroxytetrahydrofuran-3-yl)pyridin-2-yl)-1′,2′-dihydrospiro[cyclopropane-1,3′-pyrrolo[3,2-c]pyridin]-6′-yl)acetamide], the negative logarithm of the IC50 (pIC50) at JH2 domain of human Tyk2 is ≥ 8.00; in assay [1], 7.00 to 8.00; in assay [2], ≤ 6.00; in assay [3], ≤ 6.00.
`CC(=O)Nc1cc2c(cn1)C1(CC1)CN2c1cc(C2CC2)nc(C(C)(F)F)n1` [Example 21, N-(1′-(6-cyclopropyl-2-(1,1-difluoroethyl)pyrimidin-4-yl)-1′,2′-dihydrospiro[cyclopropane-1,3′-pyrrolo[3,2-c]pyridin]-6′-yl)acetamide]: the pIC50 at JH2 domain of human Tyk2 was ≥ 8.00; in assay [1], 7.00 to 8.00; in assay [2], ≤ 6.00; in assay [3], ≤ 6.00.
Turning to `CC(=O)Nc1cc2c(cn1)CCN2c1cccc(C(C)(F)F)n1` [Example 32, N-(1-(6-(1,1-difluoroethyl)pyridin-2-yl)-2,3-dihydro-1H-pyrrolo[3,2-c]pyridin-6-yl)acetamide], the pIC50 was 7.00 to 8.00 at JH2 domain of human Tyk2, ≤ 6.00 in assay [1], ≤ 6.00 in assay [2] and ≤ 6.00 in assay [3].
Take `CC(=O)Nc1cc2c(cn1)C1(CC1C)CN2c1ccnc(C(C)(F)F)n1` (centres unmarked) [Example 37, N-(1′-(2-(1,1-difluoroethyl)pyrimidin-4-yl)-2-methyl-1′,2′-dihydrospiro[cyclopropane-1,3′-pyrrolo[3,2-c]pyridin]-6′-yl)acetamide]: the negative logarithm of the IC50 (pIC50) on JH2 domain of human Tyk2 was 7.00 to 8.00; in assay [1], ≤ 6.00; in assay [2], ≤ 6.00; in assay [3] it was ≤ 6.00.
On to `CC(=O)Nc1cc2c(cn1)C(C)(C)CN2c1ccnc(C(C)(F)F)n1` [Example 38, N-(1-(2-(1,1-difluoroethyl)pyrimidin-4-yl)-3,3-dimethyl-2,3-dihydro-1H-pyrrolo[3,2-c]pyridin-6-yl)acetamide], for which the pIC50 (at JH2 domain of human Tyk2; in assay [1]; in assay [2]; in assay [3]) was ≤ 6.00 in each case.
Regarding `CC(=O)Nc1cc2c(cn1)C(C)(C)CN2c1nccc(C(C)(F)F)n1` [Example 39, N-(1-(4-(1,1-difluoroethyl)pyrimidin-2-yl)-3,3-dimethyl-2,3-dihydro-1H-pyrrolo[3,2-c]pyridin-6-yl)acetamide], the negative-log IC50 (pIC50) (at JH2 domain of human Tyk2; in assay [1]; in assay [2]; in assay [3]) was ≤ 6.00 throughout.
As to `CC(=O)Nc1cc2c(cn1)C1(CCC1)CN2c1ccnc(C(C)(F)F)n1` [Example 41, N-(1′-(2-(1,1-difluoroethyl)pyrimidin-4-yl)-1′,2′-dihydrospiro[cyclobutane-1,3′-pyrrolo[3,2-c]pyridin]-6′-yl)acetamide], the pIC50 on JH2 domain of human Tyk2 was 7.00 to 8.00; in assay [1], ≤ 6.00; in assay [2], ≤ 6.00; in assay [3], ≤ 6.00.
As to `CC(=O)Nc1cc2c(cn1)C1(CCC1)CN2c1cccc(C(C)(F)F)n1` [Example 42, N-(1′-(6-(1,1-difluoroethyl)pyridin-2-yl)-1′,2′-dihydrospiro[cyclobutane-1,3′-pyrrolo[3,2-c]pyridin]-6′-yl)acetamide], the negative-log IC50 (pIC50) at JH2 domain of human Tyk2 was 7.00 to 8.00; in assay [1] it was ≤ 6.00; in assay [2] it was ≤ 6.00; in assay [3], ≤ 6.00.
As to `COCCNc1cc(N2CC3(CC3)c3cnc(NC(C)=O)cc32)nc(C(C)(F)F)n1` [Example 49, N-(1′-(2-(1,1-difluoroethyl)-6-((2-methoxyethyl)amino)pyrimidin-4-yl)-1′,2′-dihydrospiro[cyclopropane-1,3'-pyrrolo[3,2-c]pyridin]-6'-yl)acetamide], the pIC50 at JH2 domain of human Tyk2 was ≥ 8.00; in assay [1] it was 7.00 to 8.00; in assay [2], ≤ 6.00; in assay [3] it was ≤ 6.00.
For `CC(=O)Nc1cc2c(cn1)C(C)(C)CN2c1cccc(C(C)(F)F)n1` [Example 76, N-(1-(6-(1,1-difluoroethyl)pyridin-2-yl)-3,3-dimethyl-2,3-dihydro-1H-pyrrolo[3,2-c]pyridin-6-yl)acetamide trifluoroacetate], the pIC50 is 6.00 to 7.00 at JH2 domain of human Tyk2, ≤ 6.00 in assay [1], ≤ 6.00 in assay [2] and ≤ 6.00 in assay [3].
On to `CC(=O)Nc1cc2c(cn1)C1(CC1)CN2c1nc(C)cc(C(C)(F)F)n1` [Example 83, N-(1′-(4-(1,1-difluoroethyl)-6-methylpyrimidin-2-yl)-1′,2′-dihydrospiro[cyclopropane-1,3′-pyrrolo[3,2-c]pyridin]-6′-yl)acetamide], for which the pIC50 was ≥ 8.00 on JH2 domain of human Tyk2, 6.00 to 7.00 in assay [1], ≤ 6.00 in assay [2] and ≤ 6.00 in assay [3].
`CC(=O)Nc1cc2c(cn1)C1(CC1)CN2c1cccc(C2COC2)n1` [Example 84, N-(1′-(6-(oxetan-3-yl)pyridin-2-yl)-1′,2′-dihydrospiro[cyclopropane-1,3′-pyrrolo[3,2-c]pyridin]-6′-yl)acetamide]: the negative-log IC50 (pIC50) is 7.00 to 8.00 on JH2 domain of human Tyk2, ≤ 6.00 in assay [1], ≤ 6.00 in assay [2] and ≤ 6.00 in assay [3].
As to `CC(=O)Nc1cc2c(cn1)C1(CC1)CN2c1cccc(C2(F)COC2)n1` [Example 85, N-(1′-(6-(3-fluorooxetan-3-yl)pyridin-2-yl)-1′,2′-dihydrospiro[cyclopropane-1,3′-pyrrolo[3,2-c]pyridin]-6′-yl)acetamide], the pIC50 at JH2 domain of human Tyk2 is 7.00 to 8.00; in assay [1], ≤ 6.00; in assay [2], ≤ 6.00; in assay [3] it was ≤ 6.00.

For the origin of these results see patent publication US20260258032A1, “TYROSINE KINASE 2 INHIBITORS AND USES THEREOF” (BIOGEN MA INC., priority 2022, published 2026).
